The values below come from patent US10913727B2, “Modulators of the integrated stress pathway” (Calico Life Sciences LLC, priority 2016, dated 2021).

The assay concerns HEK293T cells carrying the ATF4 luciferase reporter. Description: ATF4-Luc assay, in vitro model of Vanishing Cell White Matter Disease (VWMD). The class given is cell-based. To be noted: Homo sapiens, HEK-293T, 1 μg/mL tunicamycin, 7 hours, One Glo luminescence. The method, boiled down: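 Stable HEK293T line with human ATF4 5′-UTR–firefly luciferase reporter treated with 1 μg/mL tunicamycin plus 200 nM compound for 7 h. Luminescence read; EC50 derived.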
Turning to `Cc1cn2ccnc(NC34CC(NC(=O)COc5ccc(Cl)c(F)c5)(C3)C4)c2n1` [Compound 463, 2-(4-chloro-3-fluorophenoxy)-N-{3-[(2-methylimidazo[1,2-a]pyrazin-8-yl)amino]bicyclo[1.1.1]pentan-1-yl}acetamide], the concentration giving a half-maximal response (EC50) lay within 50 to 250 nM.
As to `O=C(COc1ccc(Cl)c(F)c1)NC12CC(NC(=O)c3ccco3)(C1)C2` [Compound 304, N-{3-[2-(4-chloro-3-fluorophenoxy)acetamido]bicyclo[1.1.1]pentan-1-yl}furan-2-carboxamide], the 50% effective concentration (EC50) fell in the range of 250 to 1000 nM.
As for `Cn1cc(-c2cc(C(=O)NC34CCC(NC(=O)COc5ccc(Cl)c(F)c5)(CC3)C(O)C4)on2)cn1` (centres unmarked) [Compound 633, N-{4-[2-(4-chloro-3-fluorophenoxy)acetamido]-3-hydroxybicyclo[2.2.2]octan-1-yl}-3-(1-methyl-1H-pyrazol-4-yl)-1,2-oxazole-5-carboxamide], the figure is 50 to 250 nM; as for `O=C(COc1ccc2c(c1)OC(F)(F)O2)NC12CC(NC(=O)c3ccccn3)(C1)C2` [Compound 400, N-(3-{2-[(2,2-difluoro-2H-1,3-benzodioxol-5-yl)oxy]acetamido}bicyclo[1.1.1]pentan-1-yl)pyridine-2-carboxamide], 250 to 1000 nM.
Turning to `O=C(COc1ccc(Cl)c(F)c1)NC12CC(NC(=O)c3cc(-c4ccc(Cl)cc4)on3)(C1)C2` [Compound 113, N-{3-[2-(4-chloro-3-fluorophenoxy)acetamido]bicyclo[1.1.1]pentan-1-yl}-5-(4-chlorophenyl)-1,2-oxazole-3-carboxamide], the EC50 fell in the range of 50 to 250 nM.
`O=C(COc1ccc(Cl)c(F)c1)NC12CCC(NC(=O)c3cc(C4CC4)no3)(CC1)CC2O` (centres unmarked) [Compound 327, N-{4-[2-(4-chloro-3-fluorophenoxy)acetamido]-3-hydroxybicyclo[2.2.2]octan-1-yl}-3-cyclopropyl-1,2-oxazole-5-carboxamide]: the EC50 was in the range of 50 to 250 nM.
As for `Cc1cc(C(=O)NC23CC(NC(=O)COc4ccc(Cl)c(Cl)c4)(C2)C3)n(C)n1` [Compound 441, N-{3-[2-(3,4-dichlorophenoxy)acetamido]bicyclo[1.1.1]pentan-1-yl}-1,3-dimethyl-1H-pyrazole-5-carboxamide], the figure is < 50 nM; as for `COCc1nc(C(=O)NC23CCC(NC(=O)COc4ccc(Cl)c(F)c4)(CC2)[C@@H](O)C3)cs1` [Compound 619, N-{(3S)-4-[2-(4-chloro-3-fluorophenoxy)acetamido]-3-hydroxybicyclo[2.2.2]octan-1-yl}-2-(methoxymethyl)-1,3-thiazole-4-carboxamide], < 50 nM.
For the compound `CCOc1ccc(C(=O)NC23CC(NC(=O)COc4ccc(Cl)c(F)c4)(C2)C3)cc1` [Compound 351, N-{3-[2-(4-chloro-3-fluorophenoxy)acetamido]bicyclo[1.1.1]pentan-1-yl}-4-ethoxybenzamide], the EC50 was in the range of 50 to 250 nM.
With `Cc1cc(C(=O)NC23CCC(NC(=O)COc4ccc(Cl)c(Cl)c4)(CC2)[C@@H](O)C3)on1` [Compound 759, N-{(3S)-4-[2-(3,4-dichlorophenoxy)acetamido]-3-hydroxybicyclo[2.2.2]octan-1-yl}-3-methyl-1,2-oxazole-5-carboxamide], the concentration for a half-maximal effect (EC50) is < 50 nM.
On to `Cc1cc(C(=O)NC23CCC(NC(=O)COc4ccc(F)c(F)c4)(CC2)C(=O)C3)on1` [Compound 461, N-{4-[2-(3,4-difluorophenoxy)acetamido]-3-oxobicyclo[2.2.2]octan-1-yl}-3-methyl-1,2-oxazole-5-carboxamide], for which the EC50 was 1000 to 2000 nM.
Regarding `CC(C)c1cc(C(=O)NC23CC(NC(=O)COc4ccc(Cl)c(F)c4)(C2)C3)n(C)n1` [Compound 364, N-{3-[2-(4-chloro-3-fluorophenoxy)acetamido]bicyclo[1.1.1]pentan-1-yl}-1-methyl-3-(propan-2-yl)-1H-pyrazole-5-carboxamide], the concentration giving a half-maximal response (EC50) is 50 to 250 nM.
For the compound `O=C(COc1ccc(Cl)c(F)c1)NC12CC(NC(=O)c3ccc(Cl)c(F)c3)(C1)C2` [Compound 692, 4-chloro-N-{3-[2-(4-chloro-3-fluorophenoxy)acetamido]bicyclo[1.1.1]pentan-1-yl}-3-fluorobenzamide], the EC50 lay in the range of 50 to 250 nM.
As for `Cc1nnc(C(=O)NC23CC(NC(=O)COc4ccc(Cl)c(F)c4)(C2)C3)o1` [Compound 354, N-{3-[2-(4-chloro-3-fluorophenoxy)acetamido]bicyclo[1.1.1]pentan-1-yl}-5-methyl-1,3,4-oxadiazole-2-carboxamide], the figure is 1000 to 2000 nM; as for `Cn1nc(C(F)(F)F)cc1C(=O)NC12CC(NC(=O)COc3ccc(Cl)c(F)c3)(C1)C2` [Compound 582, N-{3-[2-(4-chloro-3-fluorophenoxy)acetamido]bicyclo[1.1.1]pentan-1-yl}-1-methyl-3-(trifluoromethyl)-1H-pyrazole-5-carboxamide], 50 to 250 nM.
In the case of `Cc1ncc(C(=O)NC23CC(NC(=O)COc4ccc(Cl)c(F)c4)(C2)C3)c(C)n1` [Compound 784, N-{3-[2-(4-chloro-3-fluorophenoxy)acetamido]bicyclo[1.1.1]pentan-1-yl}-2,4-dimethylpyrimidine-5-carboxamide], the concentration giving a half-maximal response (EC50) is > 2000 nM.
Regarding `COCCOc1ccc(C(=O)NC23CC(NC(=O)COc4ccc(Cl)c(F)c4)(C2)C3)nc1` [Compound 299, N-{3-[2-(4-chloro-3-fluorophenoxy)acetamido]bicyclo[1.1.1]pentan-1-yl}-5-(2-methoxyethoxy)pyridine-2-carboxamide], the half-maximal effective concentration (EC50) was 250 to 1000 nM.
In the case of `O=C(COc1ccc(Cl)c(F)c1)NC12CC(NC(=O)c3ccc(OC(F)F)cn3)(C1)C2` [Compound 152, N-{3-[2-(4-chloro-3-fluorophenoxy)acetamido]bicyclo[1.1.1]pentan-1-yl}-5-(difluoromethoxy)pyridine-2-carboxamide], the half-maximal effective concentration (EC50) was 50 to 250 nM.
`O=C(COc1ccc(Cl)c(F)c1)NC12CC(NC(=O)c3nc4ccccc4s3)(C1)C2` [Compound 907, N-{3-[2-(4-chloro-3-fluorophenoxy)acetamido]bicyclo[1.1.1]pentan-1-yl}-1,3-benzothiazole-2-carboxamide]: the EC50 lay within 50 to 250 nM.
Consider `O=C(COc1ccc(Cl)c(F)c1)NC12CCC(NC(=O)c3ccc(OC(F)F)cn3)(C1)C2` [Compound 337, N-{4-[2-(4-chloro-3-fluorophenoxy)acetamido]bicyclo[2.1.1]hexan-1-yl}-5-(difluoromethoxy)pyridine-2-carboxamide], for which the EC50 lay in the range of 250 to 1000 nM.
As to `Cc1nc(C(=O)NC23CCC(NC(=O)COc4ccc(Cl)c(F)c4)(CC2)C(O)C3)c(C)o1` (centres unmarked) [Compound 472, N-{4-[2-(4-chloro-3-fluorophenoxy)acetamido]-3-hydroxybicyclo[2.2.2]octan-1-yl}-2,5-dimethyl-1,3-oxazole-4-carboxamide], the half-maximal effective concentration (EC50) lay in the range of 250 to 1000 nM.
As for `Cn1cnc2cc(C(=O)NC34CC(NC(=O)COc5ccc(Cl)c(F)c5)(C3)C4)ccc21` [Compound 767, N-{3-[2-(4-chloro-3-fluorophenoxy)acetamido]bicyclo[1.1.1]pentan-1-yl}-1-methyl-1H-benzimidazole-5-carboxamide], the figure is > 2000 nM.
With `O=C(COc1ccc(Cl)c(Cl)c1)NC12CC(NC(=O)c3ccc(Cl)c(F)c3)(C1)C2` [Compound 685, 4-chloro-N-{3-[2-(3,4-dichlorophenoxy)acetamido]bicyclo[1.1.1]pentan-1-yl}-3-fluorobenzamide] the figure was < 50 nM.

As usually defined, the EC50 is the concentration at which the effect is half-maximal.
